# Source: US10973748B2, “Compositions and methods for lightening skin and reducing hyperpigmentation” (Versitech Limited, priority 2016, dated 2021)
# Assays:
# [1] = system: MelanoDerm (Mel-300-A) epidermal equivalents containing melanocytes; assay: Depigmentation in artificial skin model: brightness and L* value; assay type: cell-based, human; settings: 6-CEPN 10 μM, 8-CEPQ 5 μM
# Procedure: (§1) Epidermal equivalents containing melanocytes (Mel-300-A) were maintained according to the manufacturer's instructions. Mel-300-A tissue was cultured in EPI-100-NMM-113 medium for 14 days. Agents were dissolved in tissue culture medium and changed every other day. The test agents were either (1) rapamycin (2.5 μM), as the positive control in depigmentation, (2) 6-CEPN (10 μM), or (3) 8-CEPQ (5 μM). The concentration of rapamycin used was lower than 6-CEPN and 8-CEPQ, as rapamycin is toxic to cells at higher concentration. Pigmentation of these skin equivalents was compared against treatment of cells with a culture medium only (denoted as “vehicle”). Tissue viability was assessed on day 14 by CCK-8 assay as described in Example 1. On day 14, single tissues were harvested and photographed. The L* parameter was used to evaluate skin lightening or darkening. The lighter the skin, the greater the L* value. ΔL* value was measured by a Chroma Meter CR400 (Konica Minolta) for an evaluation of lightening as a function of time. Three tissues for each treatment were frozen for the Solvable Melanin assay (Bessou-Touya et al., “Chimeric human epidermal reconstructs to study the role of melanocytes and keratinocytes in pigmentation and photoprotection.” Journal of investigative dermatology 111(6):1103-1108 (1998)). Additional tissues were fixed by 10% formanin. For melanin staining in paraffin-embedded tissues, Fontana-Masson silver staining was used as previously detailed (Barbosa et al., “A simple and economical modification of the Masson-Fontana method for staining melanin granules and enterochromaffin cells.” Stain technology 59(4):193-196 (1984)).
# [2] = system: tyrosinase-related protein-1 (TRP1); assay: Western blotting of TRP-1 protein level in melan-a cells; assay type: cell-based, murine; settings: α-MSH, 72 hrs, 20 μM
# Procedure: Melan-a cells (3×10^5 cells/well) were seeded in 4 mL of culture medium in a 6-well plate for at least 24 hrs prior to use. The cells were treated with α-MSH (1 μM) alone, α-MSH plus plus different concentration of agents for 72 hrs. The cells were washed with cold PBS and then lysed in 100 μL of RIPA buffer containing 1% Nonidet P-40, 0.1% sodium dodecylsulfate, 0.5% sodium deoxycholate, and 2% protease inhibitor at 4° C. Samples were centrifuged at 14,000 rpm for 30 mins at 4° C., and total proteins in the supernatant were separated. 10 μg of denatured proteins were loaded per lane, and separated by 10% SDS-PAGE gel. Proteins were then transferred to Immobilon-P Transfer Membranes (Millipore Co., Bed-ford, Mass.) by semidry transfer. Membranes were incubated with primary antibodies specific for Tyrosinase, tyrosinase-related protein-1 (TRP1), tyrosinase-related protein-2 (TRP2), and microphthalmia-associated transcription factor (MITF). The blots were subsequently washed and incubated with the appropriate secondary antibodies. Immunoreactive protein bands were visualized with enhanced chemiluminescence western blotting detection reagents and quantified using an ODYSSEY Fc Imaging system. The amounts of protein loaded were normalized against a control protein, β-actin.
# [3] = system: melan-a cells; assay: Cellular melanin content (SRB combined assay); assay type: cell-based, murine; settings: α-MSH, 72 hrs
# Procedure: Murine melan-a cells (an immortalized, non-tumorigenic murine melanocyte cell line) were obtained from Chinese University of Hong Kong. Cells were cultured in RPMI 1640 medium. Culture medium was supplemented with 10% FBS and 1% penicillin-streptomycin and the cells were incubated at 37° C. in 5% CO2. […] The tested chemical agents (e.g., 6-CEPN and Kojic acid) were individually dissolved as a stock solution at a concentration of 100 mM in 100% dimethyl sulfoxide (DMSO). The stock solution was diluted using culture medium to the desired final concentrations immediately prior to use.
# Melan-a cells (3×10^5 cells/well) were plated in 2 mL of 12-well multidishes for at least 24 hrs prior to use. […] Melanin content was measured using a sulphorhodamine B (SRB) combined assay (Lam R Y et al., J Ethnopharmacol, 132(1):274-9 (2010); Chinese patent application publication no. CN 104758191 A) to ensure any reduction in the melanin content was not due to the death of melan-a cells. As the colorimetric-based SRB assay could accurately estimate the number of viable cells, the melanin level was expressed as melanin content versus each single cell by taking into account the results of viable cells from the SRB assay. […] After a 72 h incubate, cell number was counted using SRB assay. […] The OD value was read at 595 nm. […]
# [4] = system: MelanoDerm (Mel-300-A) epidermal equivalents containing melanocytes; assay: Fontana-Masson silver staining of artificial skin model; assay type: cell-based, human; settings: day 14, rapamycin 2.5 μM, 6-CEPN 10 μM
# Procedure: as §1
smiles,measurement,setting,value
"O=C1C[C@@H](c2ccc(O)cc2)Oc2cc(O)c(/C=C/c3ccccc3)c(O)c21 [6-CEPN, 6-C-(E-phenylethenyl)-naringenin]",brightness of the tissues (visual examination),"[1]; 14 days, rapamycin 2.5 μM",increased the brightness of the tissues
same,L* value vs negative control,"[1]; day 14, rapamycin 2.5 μM",increased the L* value
same,protein level of TRP-1,[2],significantly suppressed
same,depigmenting effects (in words),[3],much stronger depigmenting effects than kojic acid
same,depigmentation,[3]; 20 μM,~80%
same,melanin content and distribution (Fontana Masson staining),[4],significant decrease in the melanin content and distribution
same,thickness of basal layer of tissue,[4],without causing reduction in the thickness of basal layer of tissue
